Results published in publication PMC7377239, “Cardiovascular Effects of Polychlorinated Biphenyls and Their Major Metabolites” (Environmental Health Perspectives, 2020).
Counter-ions that a name gives are not always drawn. Like-named read-outs stand apart in the source and are kept apart here.

Legend:
[1] = test system: HUVECs; assay: Tube formation (tubulogenesis) assay in HUVECs, 18 h; type: cell-based, human; details: Homo sapiens, HUVEC, 18 h; for activity at 0.1 µM: 0.10 µM
How it was run: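 HUVECs (passage 1–5) seeded on reduced-growth-factor basement membrane and exposed to compounds overnight at 37°C, 5% CO2, in 2× maintenance medium with 12.5 ng/mL VEGF; 0.5% DMSO vehicle. Calcein AM-stained tube networks imaged and analysed; vehicle-normalized readouts fit to four-parameter logistic, POD set at one SD of vehicle means.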

[2] = test system: iCell endothelial cells (human iPSC-derived ECs); assay: High-content imaging cytotoxicity in iCell endothelial cells, 24 h; type: cell-based; details: Homo sapiens, Endothelial cell, 24 hr; for viability at 0.1 µM / activity at 0.1 µM: 0.10 µM
How it was run: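 Human iPSC-derived endothelial cells (passages 1–5) were grown to a fibronectin-coated monolayer, then exposed 24 h at 37 °C with 0.5% DMSO vehicle. Staining was Hoechst 33342, MitoTracker Orange and calcein AM, read by high-content imaging. Point of departure came from 4-parameter logistic fits, with a 1-SD vehicle cutoff and 100 µM as the top concentration.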

[3] = HUVECs, 0.00 µM = 100.00, read-out: huvec.mtl.18hr
[4] = HUVECs, 0.00 µM = 100.00, read-out: huvec.tlps.18hr
[5] = HUVECs, 0.00 µM = 100.00, read-out: huvec.tta.18hr
[6] = HUVECs, 0.00 µM = 100.00, read-out: huvec.ttl.18hr
[7] = iPSC-EC, 0.00 µM control = 100.00, read-out: endo.cyto.24hr
[8] = iPSC-EC, 0.00 µM control = 100.00, read-out: endo.mito.24hr
[9] = iPSC-EC, 0.00 µM control = 100.00, read-out: endo.mitoint.24hr
[10] = iPSC-EC, 0.00 µM control = 100.00, read-out: endo.nma.24hr
[11] = iPSC-EC, 0.00 µM control = 100.00, read-out: endo.tc.24hrs
[12] = tube formation mtl, read-out: POD huvec.mtl.18hr
[13] = tube formation tlps, read-out: POD huvec.tlps.18hr
[14] = tube formation tta, read-out: POD huvec.tta.18hr
[15] = tube formation ttl, read-out: POD huvec.ttl.18hr
[16] = endothelial cells (endo), cyto, read-out: POD endo.cyto.24hr
[17] = endothelial cells (endo), mito, read-out: POD endo.mito.24hr
[18] = endothelial cells (endo), mitoint, read-out: POD endo.mitoint.24hr
[19] = endothelial cells (endo), nma, read-out: POD endo.nma.24hr
[20] = endothelial cells (endo), tc, read-out: POD endo.tc.24hr

## O=S(=O)(O)Oc1cccc(-c2ccc(Cl)cc2)c1 [3'-yl PCB 3 sulfate]
[1]; [3]
  activity at 0.01 µM: 106%
  activity at 0.1 µM: 110%
  activity at 1 µM: 111%
  activity at 10 µM: 97.5%
  activity at 100 µM: 58%
[1]; [4]
  activity at 0.01 µM: 119%
  activity at 0.1 µM: 121%
  activity at 1 µM: 129%
  activity at 10 µM: 141%
  activity at 100 µM: 37.8%
[1]; [5]
  activity at 0.01 µM: 121%
  activity at 0.1 µM: 141%
  activity at 1 µM: 141%
  activity at 10 µM: 104%
  activity at 100 µM: 52.3%
[1]; [6]
  activity at 0.01 µM: 112%
  activity at 0.1 µM: 142%
  activity at 1 µM: 137%
  activity at 10 µM: 102%
  activity at 100 µM: 58.3%
[1]; HUVECs, top concentration 100.00 µM, read-out: huvec.mtl.18hr POD
  minimal effective concentration: 15.5 µM
[1]; HUVECs, top concentration 100.00 µM, read-out: huvec.tlps.18hr POD
  minimal effective concentration: 100 µM
[1]; HUVECs, top concentration 100.00 µM, read-out: huvec.tta.18hr POD
  minimal effective concentration: 100 µM
[1]; HUVECs, top concentration 100.00 µM, read-out: huvec.ttl.18hr POD
  minimal effective concentration: 100 µM
[2]; [7]
  viability at 0.01 µM: 101%
  viability at 0.1 µM: 93.7%
  viability at 1 µM: 97.2%
  viability at 10 µM: 98.7%
  viability at 100 µM: 98.5%
[2]; [8]
  activity at 0.01 µM: 101%
  activity at 0.1 µM: 93.7%
  activity at 1 µM: 97.2%
  activity at 10 µM: 98.8%
  activity at 100 µM: 98.5%
[2]; [9]
  activity at 0.01 µM: 106%
  activity at 0.1 µM: 105%
  activity at 1 µM: 105%
  activity at 10 µM: 111%
  activity at 100 µM: 103%
[2]; [10]
  activity at 0.01 µM: 99.3%
  activity at 0.1 µM: 103%
  activity at 1 µM: 102%
  activity at 10 µM: 99.5%
  activity at 100 µM: 97.4%
[2]; [11]
  viability at 0.01 µM: 101%
  viability at 0.1 µM: 93.7%
  viability at 1 µM: 97.2%
  viability at 10 µM: 98.7%
  viability at 100 µM: 98.5%
[2]; iPSC-EC, top concentration 100.00 µM, read-out: endo.cyto.24hr POD
  minimal effective concentration: 100 µM
[2]; iPSC-EC, top concentration 100.00 µM, read-out: endo.mito.24hr POD
  minimal effective concentration: 100 µM
[2]; iPSC-EC, top concentration 100.00 µM, read-out: endo.mitoint.24hr POD
  minimal effective concentration: 100 µM
[2]; iPSC-EC, top concentration 100.00 µM, read-out: endo.nma.24hr POD
  minimal effective concentration: 100 µM
[2]; iPSC-EC, top concentration 100.00 µM, read-out: endo.tc.24hrs POD
  minimal effective concentration: 100 µM

## Oc1ccc(-c2cccc(Cl)c2)cc1Cl [4-OH-PCB 11]
[1]; [12]
  minimal effective concentration: 7.09 µM
[1]; [13]
  minimal effective concentration: 35.3 µM
[1]; [14]
  minimal effective concentration: 100 µM
[1]; [15]
  minimal effective concentration: 4.15 µM
[2]; [16]
  minimal effective concentration: 43.6 µM
[2]; [17]
  minimal effective concentration: 43.6 µM
[2]; [18]
  minimal effective concentration: 13 µM
[2]; [19]
  minimal effective concentration: 9.66 µM
[2]; [20]
  minimal effective concentration: 62.1 µM

## COc1ccc(-c2cccc(Cl)c2)cc1Cl [4-OMe-PCB 11, 4-methoxy-3,3′-dichlorobiphenyl]
[1]; [12]
  minimal effective concentration: 9.33 µM
[1]; [13]
  minimal effective concentration: 25.8 µM
[1]; [14]
  minimal effective concentration: 100 µM
[1]; [15]
  minimal effective concentration: 1.22 µM
[2]; [16]
  minimal effective concentration: 100 µM
[2]; [17]
  minimal effective concentration: 100 µM
[2]; [18]
  minimal effective concentration: 100 µM
[2]; [19]
  minimal effective concentration: 100 µM
[2]; [20]
  minimal effective concentration: 100 µM
